This note sets out measurements from patent publication EP4755888A1 (ILAb Co., Ltd., priority 2023, dated 2025).

This assay has as its target PD-1/PD-L1 (Homo sapiens, UniProt Q9NZQ7). Description: TR-FRET PD-1/PD-L1 binding inhibition at the molecular level (free proteins). As to conditions: Tag1-PD-L1 and Tag2-PD-1 proteins, twelve concentrations from 200 nM, 2 hours at room temperature, read-out: FRET assay (IC50). How it is done: In order to evaluate the inhibitory activity of the compounds synthesized according to the above Preparation Examples against PD-1/PD-L1 molecules in a free protein state,a TR-FRET (Time-Resolved Fluorescence Energy Transfer) experimetn was performed as described below.
Specifically, the compounds were prepared in a 96-well plate by serial dilution starting from 200 nM with 1/2 dilutions to obtain a total of twelve concentrations, and 2 µL of each compound solution was added to a 384-well plate. Thereafter, Tag1-PD-L1 protein and Tag2-PD-1 protein were each prepared at a 1x concentration, mixed at a ratio of 1:1, and 8 µL of the mixed solution was added to each well of the 384-well plate containing the compounds. Anti-Tag1 Eu Cryptate reagent and Anti-Tag2 XL665 antibody were each prepared at a 1* concentration, mixed at a ratio of 1:1, and 10 µL of the mixed solution was added to each well of the 384-well plate containing the compounds and proteins, followed by incubation at room temperature for 2 hours. Upon completion of the reaction, fluorescence signals at wavelengths of 620 nm and 665 nm were measured using a microplate reader.

Sequence of PD-1/PD-L1 (Q9NZQ7 19-238 limits assumed): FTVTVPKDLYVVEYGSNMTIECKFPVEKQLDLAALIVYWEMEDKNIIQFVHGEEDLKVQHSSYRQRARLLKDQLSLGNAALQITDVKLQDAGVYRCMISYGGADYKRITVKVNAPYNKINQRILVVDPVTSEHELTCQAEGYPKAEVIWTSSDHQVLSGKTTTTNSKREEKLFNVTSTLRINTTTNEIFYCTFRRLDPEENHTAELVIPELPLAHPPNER

The IC50 is the midpoint of a concentration-inhibition curve. As to `Cc1c(NC(=O)c2cc3n(n2)CCC[C@H]3N2CCC(C(=O)O)CC2)cccc1-c1cccc(Nc2nc(C(F)(F)F)nc3cc(CN4CC[C@@H](O)C4)cnc23)c1C` (stereo in doubt) [Compound 343, 1-((R)-2-((3'-((7-(((R)-3-hydroxypyrrolidin-1-yl)methyl)-2-(trifluoromethyl)pyrido[3,2-d]pyrimidin-4-yl)amino)-2,2'-dimethyl-[1,1'-biphenyl]-3-yl)carbamoyl)-4,5,6,7-tetrahydropyrazolo[1,5-a]pyridin-4-yl)piperidine-4-carboxylic acid], the IC50 was 10 to 100 nM.

Turning to `Cc1c(NC(=O)c2cc3n(n2)CCCC3=O)cccc1-c1cccc(NC(=O)c2cc3n(n2)CCCC3=O)c1C` [Compound 1, N,N'-(2,2'-dimethyl-[1,1'-biphenyl]-3,3'-diyl)bis(4-oxo-4,5,6,7-tetrahydropyrazolo[1,5-a]pyridine-2-carboxamide)], the IC50 is < 10 nM.

As for `Cc1c(NC(=O)c2cc3n(n2)CCCC3=O)cccc1-c1cccc(NC(=O)c2cc3n(n2)CCCC3O)c1C` (centres unmarked) [Compound 2, N-(2,2'-dimethyl-3'-(4-oxo-4,5,6,7-tetrahydropyrazolo[1,5-a]pyridine-2-carboxamido)-[1,1'-biphenyl]-3-yl)-4-hydroxy-4,5,6,7-tetrahydropyrazolo[1,5-a]pyridine-2-carboxamide], the half-maximal inhibitory concentration (IC50) is < 10 nM.

On to `Cc1c(NC(=O)c2cc3n(n2)CCCC3O)cccc1-c1cccc(NC(=O)c2cc3n(n2)CCCC3O)c1C` (centres unmarked) [Compound 2-1, N,N'-(2,2'-dimethyl-[1,1'-biphenyl]-3,3'-diyl)bis(4-hydroxy-4,5,6,7-tetrahydropyrazolo[1,5-a]pyridine-2-carboxamide)], for which the IC50 is < 10 nM.

For `Cc1c(NC(=O)c2cc3n(n2)CCCC3=O)cccc1-c1cccc(NC(=O)c2cc3n(n2)CCCC3NCCO)c1C` (centres unmarked) [Compound 3, N-(2,2'-dimethyl-3'-(4-oxo-4,5,6,7-tetrahydropyrazolo[1,5-a]pyridine-2-carboxamido)-[1,1'-biphenyl]-3-yl)-4-((2-hydroxyethyl)amino)-4,5,6,7-tetrahydropyrazolo[1,5-a]pyridine-2-carboxamide], the IC50 is < 10 nM.

`Cc1c(NC(=O)c2cc3n(n2)CCCC3O)cccc1-c1cccc(NC(=O)c2cc3n(n2)CCCC3NCCO)c1C` (centres unmarked) [Compound 3-1, 4-hydroxy-N-(3'-(4-((2-hydroxyethyl)amino)-4,5,6,7-tetrahydropyrazolo[1,5-a]pyridine-2-carboxamido)-2,2'-dimethyl-[1,1'-biphenyl]-3-yl)-4,5,6,7-tetrahydropyrazolo[1,5-a]pyridine-2-carboxamide]: the IC50 was < 10 nM.

Consider `CC(=O)NCCNC1CCCn2nc(C(=O)Nc3cccc(-c4cccc(NC(=O)c5cc6n(n5)CCCC6NCCNC(C)=O)c4C)c3C)cc21` (centres unmarked) [Compound 5, N,N'-(2,2'-dimethyl-[1,1'-biphenyl]-3,3'-diyl)bis(4-((2-acetamidoethyl)amino)-4,5,6,7-tetrahydropyrazolo[1,5-a]pyridine-2-carboxamide)], for which the IC50 is < 10 nM.

Take `Cc1c(NC(=O)c2cc3n(n2)CCCC3NCCO)cccc1-c1cccc(NC(=O)c2cc3n(n2)CCCC3NCCO)c1C` (centres unmarked) [Compound 6, N,N'-(2,2'-dimethyl-[1,1'-biphenyl]-3,3'-diyl)bis(4-((2-hydroxyethyl)amino)-4,5,6,7-tetrahydropyrazolo[1,5-a]pyridine-2-carboxamide)]: the IC50 is < 10 nM.

Take `O=C(O)CNC1CCCn2nc(C(=O)Nc3cccc(-c4cccc(NC(=O)c5cc6n(n5)CCCC6NCC(=O)O)c4Cl)c3Cl)cc21` (centres unmarked) [Compound 8, 2-[[2-[[3-[3-[[4-(carboxymethylamino)-4,5,6,7-tetrahydropyrazolo[1,5-a]pyridine-2-carbonyl]amino]-2-chlorophenyl]-2-chlorophenyl]carbamoyl]-4,5,6,7-tetrahydropyrazolo[1,5-a]pyridin-4-yl]amino]acetic acid]: the IC50 is < 10 nM.

Consider `Cc1c(NC(=O)c2cc3n(n2)CCCC3O)cccc1-c1cccc(Nc2nccc3cc(CN4CC[C@@H](O)C4)cnc23)c1C` (stereo partly drawn) [Compound 11, 4-hydroxy-N-(3'-((3-(((R)-3-hydroxypyrrolidin-1-yl)methyl)-1,7-naphthyridin-8-yl)amino)-2,2'-dimethyl-[1,1'-biphenyl]-3-yl)-4,5,6,7-tetrahydropyrazolo[1,5-a]pyridine-2-carboxamide], for which the IC50 was < 10 nM.

As for `CC(=O)NCCNC1CCCn2nc(C(=O)Nc3cccc(-c4cccc(Nc5nccc6cc(CN7CC[C@@H](O)C7)cnc56)c4C)c3C)cc21` (stereo partly drawn) [Compound 12, 4-((2-acetamidoethyl)amino)-N-(3'-((3-(((R)-3-hydroxypyrrolidin-1-yl)methyl)-1,7-naphthyridin-8-yl)amino)-2,2'-dimethyl-[1,1'-biphenyl]-3-yl)-4,5,6,7-tetrahydropyrazolo[1,5-a]pyridine-2-carboxamide], the IC50 is < 10 nM.

In the case of `Cc1c(NC(=O)c2cc3n(n2)CCCC3N2CC[C@@H](O)C2)cccc1-c1cccc(Nc2nccc3cc(CN4CC[C@@H](O)C4)cnc23)c1C` (stereo partly drawn) [Compound 13, 4-((R)-3-hydroxypyrrolidin-1-yl)-N-(3'-((3-(((R)-3-hydroxypyrrolidin-1-yl)methyl)-1,7-naphthyridin-8-yl)amino)-2,2'-dimethyl-[1,1'-biphenyl]-3-yl)-4,5,6,7-tetrahydropyrazolo[1,5-a]pyridine-2-carboxamide], the IC50 is < 10 nM.

For the molecule `Cc1c(NC(=O)c2cc3n(n2)CCCC3NCCO)cccc1-c1cccc(Nc2nccc3cc(CN4CC[C@@H](O)C4)cnc23)c1C` (stereo partly drawn) [Compound 14, 4-((2-hydroxyethyl)amino)-N-(3'-((3-(((R)-3-hydroxypyrrolidin-1-yl)methyl)-1,7-naphthyridin-8-yl)amino)-2,2'-dimethyl-[1,1'-biphenyl]-3-yl)-4,5,6,7-tetrahydropyrazolo[1,5-a]pyridine-2-carboxamide], the 50% inhibitory concentration (IC50) is < 10 nM.

In the case of `Cc1c(NC(=O)c2cc3n(n2)CCCC3NC[C@@H]2CCC(=O)N2)cccc1-c1cccc(Nc2nccc3cc(CN4CC[C@@H](O)C4)cnc23)c1C` (stereo partly drawn) [Compound 15, N-(3'-((3-(((R)-3-hydroxypyrrolidin-1-yl)methyl)-1,7-naphthyridin-8-yl)amino)-2,2'-dimethyl-[1,1'-biphenyl]-3-yl)-4-((((S)-5-oxopyrrolidin-2-yl)methyl)amino)-4,5,6,7-tetrahydropyrazolo[1,5-a]pyridine-2-carboxamide], the half-inhibitory concentration (IC50) was < 10 nM.

As for `Cc1c(NC(=O)c2cc3n(n2)CCCC3NCC(=O)O)cccc1-c1cccc(Nc2nccc3cc(CN4CC[C@@H](O)C4)cnc23)c1C` (stereo partly drawn) [Compound 16, 2-((2-((3'-((3-(((R)-3-hydroxypyrrolidin-1-yl)methyl)-1,7-naphthyridin-8-yl)amino)-2,2'-dimethyl-[1,1'-biphenyl]-3-yl)carbamoyl)-4,5,6,7-tetrahydropyrazolo[1,5-a]pyridin-4-yl)amino)acetic acid], the IC50 is < 10 nM.

Turning to `Cc1c(NC(=O)c2cc3c(NC(C)(C)C(=O)O)cccn3n2)cccc1-c1cccc(Nc2nccc3cc(CN4CC[C@@H](O)C4)cnc23)c1C` [Compound 17, (R)-2-((2-((3'-((3-((3-hydroxypyrrolidin-1-yl)methyl)-1,7-naphthyridin-8-yl)amino)-2,2'-dimethyl-[1,1'-biphenyl]-3-yl)carbamoyl)pyrazolo[1,5-a]pyridin-4-yl)amino)-2-methylpropanoic acid], the IC50 was < 10 nM.

With `O=C(Nc1cccc(-c2cccc(Nc3nccc4cc(CN5CC[C@@H](O)C5)cnc34)c2Cl)c1Cl)c1cc2n(n1)CCCC2O` (stereo partly drawn) [Compound 18, N-(2,2'-dichloro-3'-((3-(((R)-3-hydroxypyrrolidin-1-yl)methyl)-1,7-naphthyridin-8-yl)amino)-[1,1'-biphenyl]-3-yl)-4-hydroxy-4,5,6,7-tetrahydropyrazolo[1,5-a]pyridine-2-carboxamide], the IC50 fell in the range of 10 to 100 nM.

With `CC(=O)NCCNC1CCCn2nc(C(=O)Nc3cccc(-c4cccc(Nc5nccc6cc(CN7CC[C@@H](O)C7)cnc56)c4Cl)c3Cl)cc21` (stereo partly drawn) [Compound 19, 4-((2-acetamidoethyl)amino)-N-(2,2'-dichloro-3'-((3-(((R)-3-hydroxypyrrolidin-1-yl)methyl)-1,7-naphthyridin-8-yl)amino)-[1,1'-biphenyl]-3-yl)-4,5,6,7-tetrahydropyrazolo[1,5-a]pyridine-2-carboxamide], the IC50 is 10 to 100 nM.

As for `O=C(Nc1cccc(-c2cccc(Nc3nccc4cc(CN5CC[C@@H](O)C5)cnc34)c2Cl)c1Cl)c1cc2n(n1)CCCC2NCCO` (stereo partly drawn) [Compound 20, N-(2,2'-dichloro-3'-((3-(((R)-3-hydroxypyrrolidin-1-yl)methyl)-1,7-naphthyridin-8-yl)amino)-[1,1'-biphenyl]-3-yl)-4-((2-hydroxyethyl)amino)-4,5,6,7-tetrahydropyrazolo[1,5-a]pyridine-2-carboxamide], the IC50 was 10 to 100 nM.

With `O=C1CC[C@@H](CNC2CCCn3nc(C(=O)Nc4cccc(-c5cccc(Nc6nccc7cc(CN8CC[C@@H](O)C8)cnc67)c5Cl)c4Cl)cc32)N1` (stereo partly drawn) [Compound 21, N-(2,2'-dichloro-3'-((3-(((R)-3-hydroxypyrrolidin-1-yl)methyl)-1,7-naphthyridin-8-yl)amino)-[1,1'-biphenyl]-3-yl)-4-((((S)-5-oxopyrrolidin-2-yl)methyl)amino)-4,5,6,7-tetrahydropyrazolo[1,5-a]pyridine-2-carboxamide], the half-maximal inhibitory concentration (IC50) fell in the range of 10 to 100 nM.
